HELM strings list units from the 5' end as sugar, base in round brackets, then linkage (d deoxyribose, r ribose, m 2'-O-methyl, p phosphodiester). Strings are as the collection lists them; they lack the last nucleoside at the 3' end of the tested compound. [moe] = 2'-O-(2-methoxyethyl) (MOE); [sp] = phosphorothioate linkage; [m5C] = 5-methylcytosine
Biological target: APP
Assay: mouse, dose not given
Details: ASO

For “RNA1{[moe](T)[sp].[moe](G)p.[moe](G)p.[moe](T)p.[moe]([m5C])[sp].d(A)[sp].d(T)[sp].d(T)[sp].d(A)[sp].d([m5C])[sp].d(T)[sp].d(A)[sp].d([m5C])[sp].d(T)[sp].d(T)[sp].[moe](A)p.[moe]([m5C])p.[moe](A)[sp].[moe]([m5C])}$$$$ (last 3' nucleoside missing)”, which 3 h FOB score is on record?
Its 3 h FOB score is 0 score 0-7.

“RNA1{[moe](T)[sp].[moe](T)p.[moe]([m5C])p.[moe](A)p.[moe]([m5C])[sp].d(A)[sp].d(G)[sp].d(T)[sp].d(T)[sp].d(T)[sp].d(A)[sp].d([m5C])[sp].d([m5C])[sp].d([m5C])[sp].d([m5C])[sp].[moe](A)p.[moe](A)p.[moe](G)[sp].[moe]([m5C])}$$$$ (last 3' nucleoside missing)” was tested. Which 3 h FOB score did it give?
The 3 h FOB score was 0 score 0-7.

With “RNA1{[moe](T)[sp].[moe](T)p.[moe](G)p.[moe](A)p.[moe](T)[sp].d(A)[sp].d(T)[sp].d(T)[sp].d(T)[sp].d(G)[sp].d(T)[sp].d([m5C])[sp].d(A)[sp].d(A)[sp].d([m5C])[sp].[moe]([m5C])p.[moe]([m5C])p.[moe](A)[sp].[moe](G)}$$$$ (last 3' nucleoside missing)” as the substance, how does the 3 h FOB score read?
The 3 h FOB score was 2.5 score 0-7.

For “RNA1{[moe](T)[sp].[moe]([m5C])p.[moe](T)p.[moe](T)p.[moe]([m5C])[sp].d(A)[sp].d(A)[sp].d([m5C])[sp].d(T)[sp].d(T)[sp].d(A)[sp].d(G)[sp].d(T)[sp].d([m5C])[sp].d(A)[sp].[moe](T)p.[moe]([m5C])p.[moe]([m5C])[sp].[moe](T)}$$$$ (last 3' nucleoside missing)”, which 3 h FOB score is on record?
Its 3 h FOB score is 0 score 0-7.

With “RNA1{[moe](T)[sp].[moe](T)p.[moe](G)p.[moe](A)p.[moe](T)[sp].d(G)[sp].d([m5C])[sp].d(A)[sp].d([m5C])[sp].d(A)[sp].d(T)[sp].d(A)[sp].d(T)[sp].d([m5C])[sp].d([m5C])[sp].[moe](A)p.[moe](G)p.[moe](G)[sp].[moe]([m5C])}$$$$ (last 3' nucleoside missing)” as the substance, how does the 3 h FOB score read?
The 3 h FOB score was 2 score 0-7.

For “RNA1{[moe](A)[sp].[moe](A)p.[moe](A)p.[moe]([m5C])p.[moe](T)[sp].d([m5C])[sp].d(T)[sp].d(A)[sp].d([m5C])[sp].d([m5C])[sp].d([m5C])[sp].d([m5C])[sp].d(T)[sp].d([m5C])[sp].d(G)[sp].[moe](G)p.[moe](A)p.[moe](A)[sp].[moe]([m5C])}$$$$ (last 3' nucleoside missing)”, which 3 h FOB score is on record?
Its 3 h FOB score is 1 score 0-7.

How did the 3 h FOB score turn out when “RNA1{[moe]([m5C])[sp].[moe](T)p.[moe](T)p.[moe]([m5C])p.[moe](T)[sp].d(G)[sp].d([m5C])[sp].d(A)[sp].d(A)[sp].d(A)[sp].d(G)[sp].d(A)[sp].d(A)[sp].d([m5C])[sp].d(A)[sp].[moe]([m5C])p.[moe]([m5C])p.[moe](A)[sp].[moe](A)}$$$$ (last 3' nucleoside missing)” was run?
Its 3 h FOB score is 0.5 score 0-7.

How did the 3 h FOB score turn out when “RNA1{[moe](T)[sp].[moe]([m5C])p.[moe](T)p.[moe]([m5C])p.[moe](A)[sp].d(T)[sp].d(A)[sp].d(G)[sp].d(T)[sp].d([m5C])[sp].d(T)[sp].d(T)[sp].d(A)[sp].d(A)[sp].d(T)[sp].[moe](T)p.[moe]([m5C])p.[moe]([m5C])[sp].[moe]([m5C])}$$$$ (last 3' nucleoside missing)” was run?
The 3 h FOB score was 0 score 0-7.

With “RNA1{[moe](T)[sp].[moe]([m5C])p.[moe](T)p.[moe](T)p.[moe]([m5C])[sp].d(A)[sp].d([m5C])[sp].d(T)[sp].d([m5C])[sp].d([m5C])[sp].d([m5C])[sp].d(A)[sp].d(T)[sp].d([m5C])[sp].d(T)[sp].[moe](G)p.[moe]([m5C])p.[moe](A)[sp].[moe](T)}$$$$ (last 3' nucleoside missing)” as the substance, how does the 3 h FOB score read?
Its 3 h FOB score is 1 score 0-7.

“RNA1{[moe]([m5C])[sp].[moe](G)p.[moe](G)p.[moe]([m5C])p.[moe](A)[sp].d(G)[sp].d(T)[sp].d(T)[sp].d(T)[sp].d(A)[sp].d(A)[sp].d(A)[sp].d(A)[sp].d(T)[sp].d(T)[sp].[moe]([m5C])p.[moe](T)p.[moe]([m5C])[sp].[moe](T)}$$$$ (last 3' nucleoside missing)” was tested. Which 3 h FOB score did it give?
The 3 h FOB score was 0 score 0-7.

“RNA1{[moe](A)[sp].[moe](A)p.[moe](G)p.[moe]([m5C])p.[moe](T)[sp].d(T)[sp].d(A)[sp].d([m5C])[sp].d(A)[sp].d(T)[sp].d([m5C])[sp].d(A)[sp].d(T)[sp].d(T)[sp].d(T)[sp].[moe](T)p.[moe]([m5C])p.[moe](T)[sp].[moe](T)}$$$$ (last 3' nucleoside missing)” was tested. Which 3 h FOB score did it give?
The 3 h FOB score was 1.33 score 0-7.

With “RNA1{[moe](G)[sp].[moe]([m5C])p.[moe]([m5C])p.[moe](A)p.[moe](T)[sp].d(A)[sp].d(T)[sp].d(T)[sp].d(G)[sp].d(T)[sp].d([m5C])[sp].d(A)[sp].d(T)[sp].d(T)[sp].d(T)[sp].[moe](T)p.[moe](A)p.[moe]([m5C])[sp].[moe](A)}$$$$ (last 3' nucleoside missing)” as the substance, how does the 3 h FOB score read?
The 3 h FOB score was 1.33 score 0-7.

With “RNA1{[moe]([m5C])[sp].[moe](T)p.[moe](T)p.[moe]([m5C])p.[moe]([m5C])p.[moe]([m5C])p.d(A)[sp].d(T)[sp].d(T)[sp].d([m5C])[sp].d(T)[sp].d([m5C])[sp].d(T)[sp].d([m5C])[sp].d(A)[sp].d(T)[sp].[moe](G)p.[moe](A)[sp].[moe]([m5C])}$$$$ (last 3' nucleoside missing)” as the substance, how does the 3 h FOB score read?
Its 3 h FOB score is 0 score 0-7.

For “RNA1{[moe](G)[sp].[moe](G)p.[moe](T)p.[moe](T)p.[moe](T)[sp].d(A)[sp].d([m5C])[sp].d([m5C])[sp].d(T)[sp].d(T)[sp].d(T)[sp].d(A)[sp].d(A)[sp].d([m5C])[sp].d(A)[sp].[moe](T)p.[moe](T)p.[moe]([m5C])[sp].[moe]([m5C])}$$$$ (last 3' nucleoside missing)”, which 3 h FOB score is on record?
The 3 h FOB score was 0.25 score 0-7.

With “RNA1{[moe]([m5C])[sp].[moe](T)p.[moe]([m5C])p.[moe](T)p.[moe](T)[sp].d(G)[sp].d(T)[sp].d(T)[sp].d(A)[sp].d(A)[sp].d(A)[sp].d(T)[sp].d([m5C])[sp].d(A)[sp].d(T)[sp].[moe](G)p.[moe](G)p.[moe]([m5C])[sp].[moe](A)}$$$$ (last 3' nucleoside missing)” as the substance, how does the 3 h FOB score read?
The 3 h FOB score was 0 score 0-7.

For “RNA1{[moe](A)[sp].[moe](A)p.[moe](G)p.[moe](G)p.[moe](G)[sp].d([m5C])[sp].d(A)[sp].d(T)[sp].d([m5C])[sp].d(A)[sp].d([m5C])[sp].d(T)[sp].d(T)[sp].d(A)[sp].d([m5C])[sp].[moe](A)p.[moe](A)p.[moe](A)[sp].[moe]([m5C])}$$$$ (last 3' nucleoside missing)”, which 3 h FOB score is on record?
The 3 h FOB score was 0 score 0-7.

With “RNA1{[moe](T)[sp].[moe]([m5C])p.[moe](A)p.[moe]([m5C])p.[moe](A)[sp].d(G)[sp].d(T)[sp].d(T)[sp].d(T)[sp].d(A)[sp].d([m5C])[sp].d([m5C])[sp].d([m5C])[sp].d([m5C])[sp].d(A)[sp].[moe](A)p.[moe](G)p.[moe]([m5C])[sp].[moe](T)}$$$$ (last 3' nucleoside missing)” as the substance, how does the 3 h FOB score read?
The 3 h FOB score was 0 score 0-7.

With “RNA1{[moe](T)[sp].[moe](G)p.[moe](T)p.[moe](G)p.[moe]([m5C])[sp].d(A)[sp].d([m5C])[sp].d(A)[sp].d(T)[sp].d(A)[sp].d(A)[sp].d(A)[sp].d(A)[sp].d([m5C])[sp].d(A)[sp].[moe](G)p.[moe](G)p.[moe]([m5C])[sp].[moe](A)}$$$$ (last 3' nucleoside missing)” as the substance, how does the 3 h FOB score read?
Its 3 h FOB score is 1 score 0-7.

From the OligoGym collection
